Laboratory results: PubChem BioAssay (NCI)
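All cell lines were grown in 96-well plates and treated with compound for 48 hours. GI50 is the concentration that inhibits growth by half. TGI: concentration producing complete growth inhibition.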

Tests used:
Experiment in all cases: NCI anticancer screen, dose series, 48 h
786-0 renal = system: 786-0 renal
A498 renal = system: A498 renal
A549 NSCLC = system: A549 NSCLC
ACHN renal = system: ACHN renal
BT-549 breast = system: BT-549 breast
CAKI-1 renal = system: CAKI-1 renal
CCRF-CEM leukemia = system: CCRF-CEM leukemia
COLO 205 colon = system: COLO 205 colon
DU-145 prostate = system: DU-145 prostate
EKVX NSCLC = system: EKVX NSCLC
HCC-2998 colon = system: HCC-2998 colon
HCT-116 colon = system: HCT-116 colon
HCT-15 colon = system: HCT-15 colon
HL-60(TB) leukemia = system: HL-60(TB) leukemia
HOP-62 NSCLC = system: HOP-62 NSCLC
HOP-92 NSCLC = system: HOP-92 NSCLC
HS 578T breast = system: HS 578T breast
HT29 colon = system: HT29 colon
IGROV1 ovarian = system: IGROV1 ovarian
K-562 leukemia = system: K-562 leukemia
KM12 colon = system: KM12 colon
LOX IMVI melanoma = system: LOX IMVI melanoma
M14 melanoma = system: M14 melanoma
MALME-3M melanoma = system: MALME-3M melanoma
MCF7 breast = system: MCF7 breast
MDA-MB-231 breast = system: MDA-MB-231 breast
MDA-MB-435 = system: MDA-MB-435
MOLT-4 leukemia = system: MOLT-4 leukemia
NCI-H226 lung = system: NCI-H226 lung
NCI-H460 lung = system: NCI-H460 lung
NCI-H522 lung = system: NCI-H522 lung
NCI/ADR-RES ovarian = system: NCI/ADR-RES ovarian
OVCAR-3 ovarian = system: OVCAR-3 ovarian
OVCAR-4 ovarian = system: OVCAR-4 ovarian
OVCAR-5 ovarian = system: OVCAR-5 ovarian
OVCAR-8 ovarian = system: OVCAR-8 ovarian
PC-3 prostate = system: PC-3 prostate
RPMI-8226 leukemia = system: RPMI-8226 leukemia
RXF 393 renal = system: RXF 393 renal
SF-268 CNS = system: SF-268 CNS
SF-295 CNS = system: SF-295 CNS
SF-539 CNS = system: SF-539 CNS
SK-MEL-2 melanoma = system: SK-MEL-2 melanoma
SK-MEL-28 melanoma = system: SK-MEL-28 melanoma
SK-MEL-5 melanoma = system: SK-MEL-5 melanoma
SK-OV-3 ovarian = system: SK-OV-3 ovarian
SN12C renal = system: SN12C renal
SNB-19 CNS = system: SNB-19 CNS
SNB-75 CNS = system: SNB-75 CNS
SW-620 colon = system: SW-620 colon
T-47D breast = system: T-47D breast
TK-10 renal = system: TK-10 renal
U251 CNS = system: U251 CNS
UACC-257 melanoma = system: UACC-257 melanoma
UACC-62 melanoma = system: UACC-62 melanoma
UO-31 renal = system: UO-31 renal

Molecule `COc1ccc2c(c1)c(-c1cc(N)n3nc(-c4cn(C)c5ccc(OC)cc45)cc3n1)cn2C` has a GI50 (786-0 renal) of 1640 nM, a TGI (786-0 renal) of 3410 nM and a GI50 (A498 renal) of 1840 nM. For the same molecule, the TGI (A498 renal) was 3680 nM, the GI50 (A549 NSCLC) was 1700 nM and the TGI (A549 NSCLC) was 3310 nM. It also gave a GI50 (ACHN renal) of 1790 nM, a TGI (ACHN renal) of 3250 nM and a GI50 (BT-549 breast) of 3230 nM. For the same molecule, the TGI (BT-549 breast) was 12000 nM, the GI50 (CAKI-1 renal) was 1790 nM and the TGI (CAKI-1 renal) was 3460 nM. For the same molecule, the GI50 (CCRF-CEM leukemia) was 436 nM, the TGI (CCRF-CEM leukemia) was 7460 nM and the GI50 (COLO 205 colon) was 1700 nM. It also gave a TGI (COLO 205 colon) of 3190 nM, a GI50 (DU-145 prostate) of 1800 nM and a TGI (DU-145 prostate) of 3190 nM. It also gave a GI50 (EKVX NSCLC) of 1840 nM, a TGI (EKVX NSCLC) of 3670 nM and a GI50 (HCC-2998 colon) of 1870 nM. The TGI (HCC-2998 colon) was 3320 nM, the GI50 (HCT-116 colon) was 1500 nM and the TGI (HCT-116 colon) was 3100 nM. The GI50 (HCT-15 colon) was 1150 nM, the TGI (HCT-15 colon) was 2780 nM and the GI50 (HL-60(TB) leukemia) was 1310 nM. It also gave a TGI (HL-60(TB) leukemia) of 3980 nM, a GI50 (HOP-62 NSCLC) of 1810 nM and a TGI (HOP-62 NSCLC) of 3670 nM. For the same molecule, the GI50 (HOP-92 NSCLC) was 1880 nM, the TGI (HOP-92 NSCLC) was 4250 nM and the GI50 (HS 578T breast) was 2570 nM. The TGI (HS 578T breast) was 6670 nM, the GI50 (HT29 colon) was 1730 nM and the TGI (HT29 colon) was 3140 nM. It also gave a GI50 (IGROV1 ovarian) of 2000 nM, a TGI (IGROV1 ovarian) of 4140 nM and a GI50 (K-562 leukemia) of 392 nM. For the same molecule, the TGI (K-562 leukemia) was greater than 100000 nM, the GI50 (KM12 colon) was 1850 nM and the TGI (KM12 colon) was 3510 nM. For the same molecule, the GI50 (LOX IMVI melanoma) was 2040 nM, the TGI (LOX IMVI melanoma) was 3640 nM and the GI50 (M14 melanoma) was 1740 nM. For the same molecule, the TGI (M14 melanoma) was 3420 nM, the GI50 (MALME-3M melanoma) was 1870 nM and the TGI (MALME-3M melanoma) was 3650 nM. It also gave a GI50 (MCF7 breast) of 1250 nM, a TGI (MCF7 breast) of 2740 nM and a GI50 (MDA-MB-231 breast) of 1840 nM. It also gave a TGI (MDA-MB-231 breast) of 3490 nM, a GI50 (MDA-MB-435) of 1910 nM and a TGI (MDA-MB-435) of 3740 nM. For the same molecule, the GI50 (MOLT-4 leukemia) was 1950 nM, the TGI (MOLT-4 leukemia) was 4880 nM and the GI50 (NCI-H226 lung) was 2060 nM. It also gave a TGI (NCI-H226 lung) of 4250 nM, a GI50 (NCI-H460 lung) of 1790 nM and a TGI (NCI-H460 lung) of 3520 nM. For the same molecule, the GI50 (NCI-H522 lung) was 1740 nM, the TGI (NCI-H522 lung) was 3410 nM and the GI50 (NCI/ADR-RES ovarian) was 2070 nM. For the same molecule, the TGI (NCI/ADR-RES ovarian) was 4520 nM, the GI50 (OVCAR-3 ovarian) was 1750 nM and the TGI (OVCAR-3 ovarian) was 3170 nM. It also gave a GI50 (OVCAR-4 ovarian) of 2040 nM, a TGI (OVCAR-4 ovarian) of 4270 nM and a GI50 (OVCAR-5 ovarian) of 1840 nM. For the same molecule, the TGI (OVCAR-5 ovarian) was 3580 nM, the GI50 (OVCAR-8 ovarian) was 1750 nM and the TGI (OVCAR-8 ovarian) was 3290 nM. For the same molecule, the GI50 (PC-3 prostate) was 1840 nM, the TGI (PC-3 prostate) was 3930 nM and the GI50 (RPMI-8226 leukemia) was 1780 nM. For the same molecule, the TGI (RPMI-8226 leukemia) was 6150 nM, the GI50 (RXF 393 renal) was 1870 nM and the TGI (RXF 393 renal) was 3570 nM. It also gave a GI50 (SF-268 CNS) of 2030 nM, a TGI (SF-268 CNS) of 4400 nM and a GI50 (SF-295 CNS) of 1880 nM. It also gave a TGI (SF-295 CNS) of 3440 nM, a GI50 (SF-539 CNS) of 1780 nM and a TGI (SF-539 CNS) of 3270 nM. The GI50 (SK-MEL-2 melanoma) was 1830 nM, the TGI (SK-MEL-2 melanoma) was 3460 nM and the GI50 (SK-MEL-28 melanoma) was 1850 nM. It also gave a TGI (SK-MEL-28 melanoma) of 3460 nM, a GI50 (SK-MEL-5 melanoma) of 1790 nM and a TGI (SK-MEL-5 melanoma) of 3250 nM. It also gave a GI50 (SK-OV-3 ovarian) of 2140 nM, a TGI (SK-OV-3 ovarian) of 4310 nM and a GI50 (SN12C renal) of 2020 nM. For the same molecule, the TGI (SN12C renal) was 3980 nM, the GI50 (SNB-19 CNS) was 2500 nM and the TGI (SNB-19 CNS) was 6690 nM. For the same molecule, the GI50 (SNB-75 CNS) was 2130 nM, the TGI (SNB-75 CNS) was 6270 nM and the GI50 (SW-620 colon) was 1020 nM. For the same molecule, the TGI (SW-620 colon) was 2410 nM, the GI50 (T-47D breast) was 1700 nM and the TGI (T-47D breast) was 3500 nM. For the same molecule, the GI50 (TK-10 renal) was 1810 nM, the TGI (TK-10 renal) was 3600 nM and the GI50 (U251 CNS) was 1820 nM. For the same molecule, the TGI (U251 CNS) was 3490 nM, the GI50 (UACC-257 melanoma) was 1780 nM and the TGI (UACC-257 melanoma) was 3630 nM. For the same molecule, the GI50 (UACC-62 melanoma) was 1960 nM, the TGI (UACC-62 melanoma) was 3870 nM and the GI50 (UO-31 renal) was 1660 nM. It also gave a TGI (UO-31 renal) of 3190 nM.
